Data: article PMC4915154, “Development of background-free tame fluorescent probes for intracellular live cell imaging” (Nature Communications, 2016)

Experiments:
[1] = system: CoK-bearing α-tubulin in HeLa cells; experiment: Protein labelling on live cells using CoK (α-tubulin), HeLa; format: cell-based; details: CoK-bearing α-tubulin versus wild type
Experimental: CHO-K1 or HeLa cells were grown in DMEM-low glucose 1 g l^−1 (Gibco) supplemented with 10% FBS (Gibco) in eight-well plate (ibid). At 70∼80% confluency, cells were transfected using 4 μl iN-fect in vitro transfection reagent with 100 ng pCoKRS-tRNA and 900 ng pTub-26TAG or with 900 ng pTubwt. After 6 h of incubation, media was replaced with fresh media (DMEM-low glucose medium with 10% FBS, 1% Pen-Strep, 2 Mm […]) containing 0.25 Mm CoK. After an additional 36 h, media was exchanged with normal growth media without CoK and cells were incubated for 2 h and washed (four times) to remove remaining CoK. Next, growth media containing 1 μM AzG-1 was added to the plates, and cells were incubated for 2 h with four times of washing (30 min each time) using growth media. High-resolution images of live cells were obtained using a Zeiss LSM510 META laser scanning confocal microscope.
Supplementary Figure 21 Fluorescence imaging of α-tubulin in live HeLa.
HeLa cells were co-transfected with plasmids pCoKRS-tRNA and pTub-26TAG or plasmid pTubwt followed by sequential treatment with CoK and AzG-1 as described above. Live cell […]
in HeLa cells. Scale bar, 10 μm.
(1 picture or pasted object on this page, not shown here)

[2] = system: mitochondria in U-2 OS cells; experiment: Mitochondria labelling with AzG-1 in cells pre-treated with TPP-BCN; format: cell-based, human; details: U-2 OS cells pre-treated with TPP-BCN, 10 μM AzG-1, 2 h
Experimental: (§1) Excited with the results, we further challenged the model and developed another ‘tame' azide-bearing probe, AzG-1, to label molecules in mitochondria and the fancy tubulin protein in living cells (Figs 4a,b). To target mitochondria, U-2 OS cells were pre-treated with TPP-BCN (an analogue of triphenylphosphonium) before labelled with 10 μM AzG-1. For tubulin labelling, a cyclooctyne-containing UAA, N-ɛ-(cyclooct-2-yn-1-yloxy)carbonyl)L-lysine (CoK) was selected for incorporating into tubulin and reacting with AzG-1 via SPAAC.[29] CHO-K1 cells were co-transfected with plasmids pCoKRS-tRNA and pTub-26TAG to incorporate CoK into α-tubulin at position 26. Site-specific incorporation of CoK using an orthogonal tRNA^Pyl/CoKRS pair was confirmed via western blot analysis (Supplementary Figs. 19 and 20). After incorporation of CoK, cells were then labelled with 10 μM AzG-1 at 37 °C. CHO-K1 cells transfected with plasmid pEGFP-Tubwt expressing EGFP-fused wild-type α-tubulin was used as a control. Confocal fluorescence images were then taken AW of unreacted AzG-1.
(§2) Figure 4 Live cell imaging with AzG-1 (a) Chemical structures of azide-bearing probe AzG-1 and its descriptor values. […] (c) Fluorescence imaging of mitochondria in U-2 OS cells labelled with AzG-1. […] (d) Fluorescence imaging of α-tubulin in live CHO-K1 cells. […]

[3] = system: CoK-bearing α-tubulin in CHO-K1 cells; experiment: Protein labelling on live cells using CoK (α-tubulin), CHO-K1; format: cell-based; details: CoK at position 26 of α-tubulin, 10 μM AzG-1, 2 h, 37 °C
Experimental: as §1, §2

CC1=CC(C)=[N+]2C1=C(CCC(=O)NCCN=[N+]=[N-])c1c(C)cc(C)n1[B-]2(F)F [AzG-1]
Labelling of α-tubulin [1]: conjugated specifically with CoK-bearing α-tubulin | Labelling of mitochondria [2]: specifically labelled mitochondria | Labelling of α-tubulin [3]: conjugated specifically with CoK-bearing α-tubulin
